Reference: PubChem BioAssay (NCI)
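Results reflect a 48-hour exposure of cells in 96-well plates to compound at five concentrations. The concentration for 50% growth inhibition is given as GI50. TGI: concentration producing complete growth inhibition.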

Assays:
Assay in all cases: NCI tumour cell line growth inhibition, 48 h
[1] = tested on: SK-MEL-5 melanoma
[2] = tested on: DU-145 prostate
[3] = tested on: HCT-15 colon
[4] = tested on: NCI-H23 lung
[5] = tested on: SK-MEL-2 melanoma
[6] = tested on: HCC-2998 colon
[7] = tested on: MDA-MB-231 breast
[8] = tested on: U251 CNS
[9] = tested on: T-47D breast
[10] = tested on: MOLT-4 leukemia

| SMILES | TGI [1] | TGI [2] | TGI [3] | TGI [4] | TGI [5] | TGI [6] | TGI [7] | TGI [8] | TGI [9] | TGI [10] | GI50 [1] | GI50 [2] | GI50 [3] | GI50 [4] | GI50 [5] | GI50 [9] | GI50 [6] | GI50 [10] | GI50 [8] |
| --- | --- | --- | --- | --- | --- | --- | --- | --- | --- | --- | --- | --- | --- | --- | --- | --- | --- | --- | --- |
| CC1(C)CC(=O)C2=C(C1)NC(SCC(=O)O)=C(C#N)C2c1ccc(Br)cc1 (stereo unspecified) | > 100 µM | > 100 µM | > 100 µM | > 100 µM | > 100 µM | > 100 µM | > 100 µM | > 100 µM | – | – | – | – | – | – | – | – | – | – | – |
| CCOC(O)C(F)(F)F (stereo unspecified) | > 100 µM | > 100 µM | > 100 µM | > 100 µM | – | > 100 µM | > 100 µM | > 100 µM | > 100 µM | > 100 µM | – | – | – | – | – | – | – | – | – |
| COC(=O)c1c(C)ccc2c(O)c3c(cc12)C(=O)c1c2c(cc(O)c1C3=O)C1(C)OC(C)(O2)C(O)C(N(C)C)C1O (stereo unspecified) | 17.3 µM | 2.46 µM | – | 3.03 µM | 5.65 µM | 1.39 µM | 3.21 µM | 1.6 µM | – | 3.2 µM | – | – | – | – | – | – | – | – | – |
| CC(C)=CC(C)C(C(O)CCC1(c2ccoc2)OCCO1)S(=O)(=O)c1ccccc1 (stereo unspecified) | > 100 µM | – | > 100 µM | > 100 µM | > 100 µM | > 100 µM | > 100 µM | > 100 µM | > 100 µM | – | – | – | – | – | – | – | – | – | – |
| CN1c2ccccc2C(=O)NC12CCN(Cc1ccccc1)CC2 | > 100 µM | > 100 µM | > 100 µM | > 100 µM | – | > 100 µM | > 100 µM | > 100 µM | > 100 µM | > 100 µM | – | – | – | – | – | – | – | – | – |
| Cc1ccc(S(=O)(=O)NC(=O)NC(Cc2ccccc2)C(=O)O)cc1 (stereo unspecified) | > 100 µM | > 100 µM | > 100 µM | > 100 µM | > 100 µM | – | > 100 µM | > 100 µM | > 100 µM | > 100 µM | – | – | – | – | – | – | – | – | – |
| N#Cc1ccc(OC(=O)c2ccc(N=C(N)N)cc2)cc1 | > 100 µM | > 100 µM | > 100 µM | > 100 µM | > 100 µM | – | > 100 µM | > 100 µM | > 100 µM | > 100 µM | – | – | – | – | – | – | – | – | – |
| COC(=O)C1=C(O)C(C(=O)OC)[C@]2(O)[C@H](C(=O)OC)[C@H]1C[C@@H](c1cccc(OC)c1)[C@H]2C(=O)OC (stereo partly specified) | > 100 µM | – | 86.3 µM | > 100 µM | 44.5 µM | 42.7 µM | 78.3 µM | 68.7 µM | > 100 µM | > 100 µM | – | – | – | – | – | – | – | – | – |
| O=C(Nc1ccc(Cl)cc1)c1cccc([N+](=O)[O-])c1O | 4.86 µM | – | > 88.3 µM | 6.55 µM | 12.5 µM | 14.4 µM | – | 48.5 µM | – | 10.1 µM | – | – | – | – | – | – | – | – | – |
| CCC(C)NC(=S)N/N=C(\C)c1ccccn1 (stereo unspecified) | – | > 46.8 µM | > 100 µM | > 100 µM | > 100 µM | > 100 µM | > 100 µM | > 100 µM | 41.7 µM | 0.14 µM | – | – | – | – | – | – | – | – | – |
| O=C(O)C(F)(F)C(F)(F)C(F)(F)C(F)(F)C(=O)O | > 100 µM | > 100 µM | > 100 µM | > 100 µM | > 100 µM | > 100 µM | > 100 µM | > 100 µM | > 100 µM | – | – | – | – | – | – | – | – | – | – |
| C\C=C/C=C/C=C/C(=O)O | > 100 µM | – | > 100 µM | > 100 µM | > 100 µM | > 100 µM | – | > 100 µM | – | > 100 µM | – | – | – | – | – | – | – | – | – |
| O=C(Nc1ccccc1)c1cc(S(=O)(=O)Nc2n[nH]c(=O)[nH]2)c(SSc2cc(Cl)c(C(=O)Nc3ccccc3)cc2S(=O)(=O)Nc2n[nH]c(=O)[nH]2)cc1Cl | > 100 µM | – | > 100 µM | > 100 µM | > 100 µM | > 100 µM | > 100 µM | > 100 µM | – | > 100 µM | – | – | – | – | – | – | – | – | – |
| [N-]=[N+]=NC1=NNC2(C(=O)N1)c1ccccc1-c1ccccc12 | > 100 µM | > 100 µM | > 100 µM | > 100 µM | > 100 µM | > 100 µM | > 100 µM | > 100 µM | – | – | – | – | – | – | – | – | – | – | – |
| N#CCN1CCCCCc2ccccc21 | > 100 µM | > 100 µM | > 100 µM | > 100 µM | – | > 100 µM | > 100 µM | > 100 µM | > 100 µM | > 100 µM | – | – | – | – | – | – | – | – | – |
| CC1(C)C2CCC1(C)C(N/C(=C(/C(Cl)=C(Cl)Cl)[N+](=O)[O-])n1nnc3ccccc31)C2 (stereo unspecified) | – | – | 93.4 µM | 52.2 µM | 61 µM | > 100 µM | 53.7 µM | 43.3 µM | > 100 µM | – | – | – | – | – | – | – | – | – | – |
| CSc1nc2c(c(=O)n1C)N=C(c1ccc(Cl)cc1)CC(c1ccccc1)N2 (stereo unspecified) | 33.7 µM | 73 µM | – | 62 µM | 29.5 µM | 53.1 µM | 27.3 µM | > 100 µM | – | 53.9 µM | – | – | – | – | – | – | – | – | – |
| O=c1c(/C=C/c2c(O)ccc3ccccc23)nnc2sc(-c3cccc([N+](=O)[O-])c3)nn12 | – | > 100 µM | > 100 µM | > 100 µM | 70.1 µM | – | 58 µM | > 100 µM | – | 28.4 µM | – | – | – | – | – | – | – | – | – |
| CCCN=C1Nc2ccccc2[C@@H]2N(C)c3ccccc3C(C)C[C@]12C (stereo partly specified) | 29.2 µM | > 100 µM | 56.4 µM | 37.3 µM | 28.1 µM | 26.3 µM | 29.8 µM | – | 49.6 µM | 45.7 µM | – | – | – | – | – | – | – | – | – |
| O=C(O)CCC(C(=O)O)N1C(=O)c2ccccc2C1=O (stereo unspecified) | > 100 µM | > 100 µM | > 100 µM | > 100 µM | > 100 µM | > 100 µM | > 100 µM | > 100 µM | > 100 µM | – | – | – | – | – | – | – | – | – | – |
| CC(=O)Nc1ccc(N2C(=O)CS(=O)(=O)C2c2cccc(Oc3ccccc3)c2)cc1 (stereo unspecified) | 28.7 µM | > 100 µM | 39.5 µM | 43.5 µM | 37.3 µM | – | 36 µM | 32.6 µM | 58.3 µM | 62.9 µM | – | – | – | – | – | – | – | – | – |
| COc1cc(C(=O)O[C@H](C(=O)NCCNC(=O)[C@@H](OC(=O)c2cc(OC)cc3c(C)cccc23)[C@]2(C)CO2)[C@]2(C)CO2)c2cccc(C)c2c1 | 0.28 µM | 1.46 µM | 1.33 µM | 0.0987 µM | – | 2.49 µM | – | 0.306 µM | 3.48 µM | > 100 µM | 0.0331 µM | 0.257 µM | 0.179 µM | < 0.01 µM | < 0.0461 µM | 0.417 µM | 0.0953 µM | < 0.01 µM | 0.0225 µM |
| O=c1[nH]c2nccnc2c2c([N+](=O)[O-])cccc12 | > 100 µM | > 100 µM | > 100 µM | > 100 µM | > 100 µM | > 100 µM | – | > 100 µM | 73.4 µM | > 100 µM | – | – | – | – | – | – | – | – | – |
